Consider 14 molecules from patent publication US6369225B1, “Compounds having activity as inhibitors of cytochrome P450RAI” (Allergan Sales, Inc., priority 2000, dated 2002).

Data set [1] addresses T1, RARα (Homo sapiens, UniProt P10276).
T1 sequence (P10276 183-462 limits assumed): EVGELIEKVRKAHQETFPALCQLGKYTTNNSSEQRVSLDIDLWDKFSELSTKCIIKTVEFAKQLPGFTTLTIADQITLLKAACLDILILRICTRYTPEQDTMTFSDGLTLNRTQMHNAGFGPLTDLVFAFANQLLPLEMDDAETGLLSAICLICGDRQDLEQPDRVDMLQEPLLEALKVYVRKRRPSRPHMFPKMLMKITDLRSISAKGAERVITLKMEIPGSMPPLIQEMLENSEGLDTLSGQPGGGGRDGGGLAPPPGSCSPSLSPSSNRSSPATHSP
Description: chimeric receptor transactivation assay, RARα. Type of data set: cell-based. Conditions: EC50 line of EC50/(EFFICACY)/Kd, read-out: RAR EC50 α. An excerpt: (§1) Assays described below measure the ability of a compound to bind to, and/or activate various retinoid receptor subtypes. When in these assays a compound binds to a given receptor subtype and activates the transcription of a reporter gene through that subtype, then the compound is considered an agonist of that receptor subtype. […] In the below described assays the ability of the compounds to bind to RARα, RARβ, RARγ, RXRα, RXRβ and RXRγ receptors, and the ability or inability of the compounds to activate transcription of a reporter gene through these receptor subtypes can be tested.
(§2) As far as specific assays are concerned, a chimeric receptor transactivation assay which tests for agonist-like activity in the RARα, RARβ, AND RARγ, receptor subtypes, and which is based on work published by Feigner P. L. and Holm M. (1989) Focus, 112 is described in detail in U.S. Pat. No. 5,455,265. The specification of U.S. Pat. No. 5,455,265 is hereby expressly incorporated by reference. The numeric results obtained with several preferred compounds of this invention in this assay are shown below in Table 1.

The target in a further data set is T2, RARβ (Homo sapiens, UniProt P10826).
T2 sequence (P10826 183-417 limits assumed): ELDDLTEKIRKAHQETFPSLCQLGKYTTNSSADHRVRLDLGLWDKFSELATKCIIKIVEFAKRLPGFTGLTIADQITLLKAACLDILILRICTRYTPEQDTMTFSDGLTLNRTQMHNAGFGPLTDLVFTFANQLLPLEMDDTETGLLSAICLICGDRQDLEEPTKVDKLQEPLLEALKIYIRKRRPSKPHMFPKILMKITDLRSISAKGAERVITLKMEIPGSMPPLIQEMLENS
The experiment in a line: chimeric receptor transactivation assay, RARβ. Type of data set: cell-based. Conditions: EC50 line of EC50/(EFFICACY)/Kd, read-out: RAR EC50 β.
Source text: as §1, §2

A further data set deals with T3, RARγ (Homo sapiens, UniProt P13631).
T3 sequence (P13631 185-419 limits assumed): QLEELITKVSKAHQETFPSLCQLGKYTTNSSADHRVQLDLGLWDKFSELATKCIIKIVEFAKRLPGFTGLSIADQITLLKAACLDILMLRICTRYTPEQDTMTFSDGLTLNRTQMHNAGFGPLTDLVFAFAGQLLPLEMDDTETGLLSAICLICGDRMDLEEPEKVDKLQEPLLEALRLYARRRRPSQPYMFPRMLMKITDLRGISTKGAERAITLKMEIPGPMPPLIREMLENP
Description: chimeric receptor transactivation assay, RARγ. It counts as cell-based. The note with it: EC50 line of EC50/(EFFICACY)/Kd, read-out: RAR EC50 γ.
Source text: as §1, §2

The target of data set [2] is T4, RARα (Homo sapiens, UniProt P10276).
T4 sequence (P10276 1-462): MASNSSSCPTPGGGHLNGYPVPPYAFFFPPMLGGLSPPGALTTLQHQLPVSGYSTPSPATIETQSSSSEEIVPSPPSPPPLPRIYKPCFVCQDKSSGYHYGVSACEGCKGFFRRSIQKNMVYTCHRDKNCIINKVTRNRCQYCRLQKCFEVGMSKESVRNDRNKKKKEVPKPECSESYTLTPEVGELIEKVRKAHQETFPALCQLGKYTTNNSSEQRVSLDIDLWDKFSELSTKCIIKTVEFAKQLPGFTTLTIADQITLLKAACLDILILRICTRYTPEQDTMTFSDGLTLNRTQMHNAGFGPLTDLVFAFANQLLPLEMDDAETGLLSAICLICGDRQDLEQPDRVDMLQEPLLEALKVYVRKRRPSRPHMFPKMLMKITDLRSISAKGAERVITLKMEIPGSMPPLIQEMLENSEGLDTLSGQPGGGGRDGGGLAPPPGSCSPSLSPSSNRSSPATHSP
The experiment in a line: ligand binding assay, RARα. Conditions: Kd line of EC50/(EFFICACY)/Kd, read-out: RAR Kd α.

For another data set, the system named is skin of hairless mice. Description: topical skin irritation test in hairless mice. Conditions: topical in acetone, once daily days 1 through 5, mean ±SD, range 0-21. Type of data set: in vivo, mouse. From the text:
Mice were housed individually throughout the dosing period.
Doses are disclosed as nmol/25 g.
The grading scale used is as follows:
Values can range from 0-9.
Values can range from 0-8.

On to `CN(C1CC1)C1CCC(C)(C)c2cc(C#Cc3ccc(C(=O)O)cc3)ccc21` (stereo not drawn) [Compound 3, 4-[(5-Cyclopropyl-methyl-amino)-8,8-dimethyl-5,6,7,8-tetrahydro-naphthalene-2yl-ethynyl]-benzoic Acid], for which the EC50 at RARα [1] is 280 nM; on RARβ, 4.8 nM; on RARγ, 9.8 nM. Also, the Kd on RARα [2] stood at 145 nM.
For `CC1(C)CCC(=O)c2ccc(C#Cc3ccc(CC(=O)O)cc3)cc21` [Compound 5, 4-[(8,8-Dimethyl-5-oxo-5,6,7,8-tetrahydro-naphthalene-2-yl-ethynyl)-phenyl]-acetic Acid], the “Cutaneous Toxicity Score (Blackjack Score)” value in the data set with skin of hairless mice (100 nmole (nmol/25 g)) worked out at 0; with skin of hairless mice (1000 nmole (nmol/25 g)), 6 ± 3. The EC50 on RARβ is 11 nM. In addition, the Kd at RARα [2] amounted to 9150 nM.
For the molecule `CN(C1CC1)C1CCC(C)(C)c2cc(C#Cc3ccc(CC(=O)O)cc3)ccc21` (stereo not drawn) [Compound 8, 4-[(5-(Cyclopropyl-methyl-amino)-8,8-dimethyl-5,6,7,8-tetrahydro-naphthalene-2-yl-ethynyl)-phenyl]-acetic Acid], the figures for the “Cutaneous Toxicity Score (Blackjack Score)” value in the data set with skin of hairless mice (100 nmole (nmol/25 g)), in the data set with skin of hairless mice (300 nmole (nmol/25 g)) and with skin of hairless mice (1000 nmole (nmol/25 g)) were 5 ± 2, 8 ± 3 and 12 ± 1, respectively. Moreover, the EC50 on RARβ is 363 nM.
For the molecule `CC1(C)CC2(CC2)Oc2ccc(C#Cc3ccc(C(=O)O)cc3)cc21` [Compound 40, Benzoic Acid, 4-[(3,4-dihydro-4,4-dimethylspiro[2H-1-benzopyran-2,1′-cyclopropane]-6-yl)ethynyl]-], the EC50 on RARα [1] worked out at 33 nM; on RARβ it was 1.2 nM; at RARγ, 6.8 nM. The Kd on RARα [2] worked out at 69 nM.
Taken in the same sequence, the figures for `CC1(C)CC2(CC2)Oc2ccc(C#Cc3ccc(C(=O)O)c(F)c3)cc21` [Compound 44, 2-Fluoro-benzoic Acid, 4-[(3,4-dihydro-4,4-dimethylspiro[2H-1-benzopyran-2,1′-cyclopropane]-6-yl)ethynyl]-] were 49 nM, 1.7 nM, 7.5 nM and 37 nM.
For the molecule `COC1(c2ccc(C#Cc3ccc(C(=O)O)cc3)cc2)CC1` [Compound 69, 4-[4-(1-Methoxycyclopropyl)-phenylethynyl]-benzoic Acid], the results for the EC50 on RARα [1], at RARβ and on RARγ were 313 nM, 12 nM and 52.6 nM, respectively. Also, at RARα [2], the Kd came to 469 nM.
As for `CC(C)OC1(c2ccc(C#Cc3ccc(C(=O)O)cc3)cc2)CC1` [Compound 73, 4-[4-(1-Isopropoxycyclopropyl)-phenylethynyl]-benzoic Acid], the EC50 on RARβ is 22.5 nM; on RARγ, 91 nM. Also, the Kd at RARα [2] was found to be 486 nM.
Taken in the same sequence, the figures for `Cc1cc(C#Cc2ccc(C(=O)O)cc2)ccc1C1(OCc2ccccc2)CC1` [Compound 81, 4-[4-(1-Benzyloxycyclopropyl)-3-methyl-phenylethynyl]-benzoic Acid] were 490 nM, 183 nM and 4210 nM.
Turning to `Cc1cc(C#Cc2ccc(C(=O)O)cc2)ccc1C1(OC(C)C)CC1` [Compound 85, 4-[4-(1-Isopropoxycyclopropyl)-3-methyl-phenylethynyl]-benzoic Acid], the concentration giving a half-maximal response (EC50) on RARα [1] worked out at 976 nM; at RARβ it was 3.5 nM; at RARγ, 2.5 nM. In addition, the Kd on RARα [2] stood at 1860 nM.
Taken in the same sequence, the figures for `Cc1cc(C#Cc2ccc(C(=O)O)cc2)ccc1C1(OCC(C)(C)C)CC1` [Compound 89, 4-[4-[1-(2,2-Dimethylpropyloxy)-cyclopropyl]-3-methyl-phenylethynyl]-benzoic Acid] were 268 nM, 26 nM, 12 nM and 3410 nM.
Taken in the same sequence, the figures for `CCc1cc(C#Cc2ccc(C(=O)O)cc2)ccc1C1(OCc2ccccc2)CC1` [Compound 93, 4-[4-(1-Benzyloxycyclopropyl)-3-ethyl-phenylethynyl]-benzoic Acid] were 4820 nM, 20 nM, 10 nM and 3450 nM.
For `CCCNC1(c2ccc(C#Cc3ccc(C(=O)O)cc3)cc2)CC1` [Compound 108, 4-[4-(1-Propylamino-cyclopropyl)-phenylethynyl]-benzoic Acid], the EC50 is 6.6 nM at RARα [1], 283 nM at RARβ and 141 nM on RARγ. Also, on RARα [2], the dissociation constant Kd amounted to 21000 nM.
In the case of `CCCN(CCC)C1(c2ccc(C#Cc3ccc(C(=O)O)cc3)cc2)CC1` [Compound 110, 4-[4-(1-Dipropylamino-cyclopropyl)-phenylethynyl]-benzoic Acid], the EC50 on RARβ was 74 nM; at RARγ, 262 nM. The Kd at RARα [2] was found to be 2060 nM.
Consider `O=C(O)c1ccc(C#Cc2ccc(C3(NCc4ccccc4)CC3)cc2)cc1` [Compound 112, 4-[4-(1-Benzylamino-cyclopropyl)-phenylethynyl]-benzoic Acid], for which the concentration giving a half-maximal response (EC50) on RARβ amounted to 335 nM. The Kd on RARα [2] was 5850 nM.

What is called EC50 is the concentration that produces a half-maximal response. Broadly, the Kd is a measure of binding affinity in units of concentration.
